# Where two headings read alike, the source gives them in different places.
# Assays:
# in vitro [1] = conditions: human
# HIV-1 isolate NL4-3 [2] = assay: microbe, parasite or virus in culture; conditions: Human immunodeficiency virus 1, NL43, PBMC
# HIV-1 isolate A17 = assay: microbe, parasite or virus in culture; conditions: Human immunodeficiency virus 1, PBMC
# HIV-1 isolate MDR807 = assay: microbe, parasite or virus in culture; conditions: Human immunodeficiency virus 1, PBMC
# HIV-1 isolate 1022-48 = assay: microbe, parasite or virus in culture; conditions: Human immunodeficiency virus 1, PBMC
# CHIKV 899 wild-type = assay: Chikungunya virus-induced cell death (CPE, MTS/PMS) assay in Vero A cells; conditions: Chikungunya virus, Vero, read-out: EC50 WT
# [3] = tested on: Peripheral Blood Mononuclear Cells (PBMCs); conditions: human
# in vitro [4] = conditions: human; remark: listed apart in the source
# HIV-1 91US001 = assay: microbe, parasite or virus in culture; conditions: Human immunodeficiency virus 1, PBMC
# HIV-1 92HT599 = assay: microbe, parasite or virus in culture; conditions: Human immunodeficiency virus 1, PBMC
# HIV-2 CBL20 H9 = assay: microbe, parasite or virus in culture; conditions: Human immunodeficiency virus 2, PBMC
# HIV-2 CDC 310319 = assay: microbe, parasite or virus in culture; conditions: Human immunodeficiency virus 2, PBMC
# HIV-1 isolate 4736_4 = assay: microbe, parasite or virus in culture; conditions: Human immunodeficiency virus 1, PBMC
# HIV-1 isolate MDR769 = assay: microbe, parasite or virus in culture; conditions: Human immunodeficiency virus 1, PBMC
# A/Udorn/72 (H3N2) = assay: microbe, parasite or virus in culture; type: cell-based; conditions: Influenza A virus, H3N2, HEK-293T
# A/Ca/07/09 (H1N1) = assay: microbe, parasite or virus in culture; type: cell-based; conditions: Influenza A virus, H1N1, HEK-293T
# in vitro [5] = conditions: human; remark: listed apart in the source
# HIV-1 MDR 769 = assay: microbe, parasite or virus in culture; conditions: Human immunodeficiency virus 1, PBMC
# HIV-1 isolate NL4-3 [6] = tested on: HIV-1 isolate NL4-3
compound,measurement,setting,value
CC(C)Nc1cccnc1N1CCN(C(=O)c2cc3cc(NS(C)(=O)=O)ccc3[nH]2)CC1 [Delavirdine],CC50,in vitro [1],> 2000 nM
same,IC90,HIV-1 isolate NL4-3 [2],30.6 nM
same,IC90,HIV-1 isolate NL4-3 [2]; read-out: IC50,57.6 nM
same,IC50,HIV-1 isolate A17,> 2000 nM
same,IC90,HIV-1 isolate A17,> 2000 nM
"CC(C)c1nc(CN(C)C(=O)N[C@H](C(=O)N[C@@H](Cc2ccccc2)C[C@H](O)[C@H](Cc2ccccc2)NC(=O)OCc2cncs2)C(C)C)cs1 [Ritonavir, ritonavir]",IC90,HIV-1 isolate NL4-3 [2],45.5 nM
same,IC90,HIV-1 isolate NL4-3 [2]; read-out: IC50,92.3 nM
same,IC90,HIV-1 isolate MDR807,1280 nM
same,IC90,HIV-1 isolate MDR807; read-out: IC50,5940 nM
same,IC50,HIV-1 isolate 1022-48,> 10000 nM
same,IC90,HIV-1 isolate 1022-48,> 10000 nM
"NC(=O)c1nc(F)c[nH]c1=O [T-705, favipiravir, reference compound]",EC50,CHIKV 899 wild-type,7400 nM
"Cc1cn([C@H]2C[C@H](N=[N+]=[N-])[C@@H](CO)O2)c(=O)[nH]c1=O [AZT, azidothymidine]",CC50,[3],> 1000 nM
same,CC50,in vitro [4],> 1000 nM
same,CC50,in vitro [1],> 1000 nM
same,IC50,HIV-1 91US001,17.4 nM
same,IC50,HIV-1 92HT599,11.9 nM
same,IC50,HIV-2 CBL20 H9,< 0.1 nM
same,IC50,HIV-2 CDC 310319,5.73 nM
same,IC90,HIV-1 isolate NL4-3 [2],9.96 nM
same,IC90,HIV-1 isolate NL4-3 [2]; read-out: IC50,39.6 nM
same,IC90,HIV-1 isolate MDR807,162 nM
same,IC90,HIV-1 isolate MDR807; read-out: IC50,> 1000 nM
same,IC90,HIV-1 isolate A17,11.6 nM
same,IC90,HIV-1 isolate A17; read-out: IC50,27.4 nM
same,IC50,HIV-1 isolate 1022-48,> 1000 nM
same,IC90,HIV-1 isolate 1022-48,> 1000 nM
same,IC90,HIV-1 isolate 4736_4,2.57 nM
same,IC90,HIV-1 isolate 4736_4; read-out: IC50,20.6 nM
"Cc1nnc(C(=O)NC(C)(C)c2nc(C(=O)NCc3ccc(F)cc3)c(O)c(=O)n2C)o1 [Raltegravir, raltegravir]",CC50,in vitro [1],> 100 nM
same,IC90,HIV-1 isolate NL4-3 [2],1.3 nM
same,IC90,HIV-1 isolate NL4-3 [2]; read-out: IC50,5.18 nM
same,IC90,HIV-1 isolate MDR769,3.64 nM
same,IC90,HIV-1 isolate MDR769; read-out: IC50,8.95 nM
same,IC90,HIV-1 isolate MDR807,0.46 nM
same,IC90,HIV-1 isolate MDR807; read-out: IC50,2.16 nM
same,IC90,HIV-1 isolate 4736_4,74.5 nM
same,IC90,HIV-1 isolate 4736_4; read-out: IC50,> 100 nM
"NC(=O)c1ncn([C@@H]2O[C@H](CO)[C@@H](O)[C@H]2O)n1 [Ribavirin, reference compound]",EC50,A/Udorn/72 (H3N2),5240 nM
same,EC50,A/Ca/07/09 (H1N1),12800 nM
same,CC50,in vitro [5],> 100000 nM
O=C1Nc2ccc(Cl)cc2[C@@](C#CC2CC2)(C(F)(F)F)O1 [Efavirenz],CC50,[3],> 1000 nM
same,CC50,in vitro [4],> 1000 nM
same,IC50,HIV-1 MDR 769,0.66 nM
enfuvirtide,CC50,human PBMCs,> 2000 nM
Cc1ccnc2c1NC(=O)c1cccnc1N2C1CC1 [Nevirapine],CC50,in vitro [1],> 10000 nM
same,IC90,HIV-1 isolate NL4-3 [2],75.3 nM
same,IC90,HIV-1 isolate NL4-3 [2]; read-out: IC50,227 nM
same,IC50,HIV-1 isolate A17,> 10000 nM
same,IC90,HIV-1 isolate A17,> 10000 nM
same,IC90,HIV-1 isolate 1022-48,70.4 nM
same,IC90,HIV-1 isolate 1022-48; read-out: IC50,242 nM
Cc1cccc(C)c1OCC(=O)N[C@@H](Cc1ccccc1)[C@@H](O)C[C@H](Cc1ccccc1)NC(=O)[C@H](C(C)C)N1CCCNC1=O [Lopinavir],CC50,[3]; 7 days,> 1000 nM
same,CC50 at 7 days,in vitro [4],> 1000 nM
same,IC50,HIV-1 MDR 769,827 nM
COc1cc2c(cc1Cc1cccc(Cl)c1F)c(=O)c(C(=O)O)cn2[C@H](CO)C(C)C [Elvitegravir],CC50,in vitro [1],> 1000 nM
same,IC90,HIV-1 isolate NL4-3 [2],0.52 nM
same,IC90,HIV-1 isolate NL4-3 [2]; read-out: IC50,1.25 nM
same,IC90,HIV-1 isolate 4736_4,81.9 nM
same,IC90,HIV-1 isolate 4736_4; read-out: IC50,251 nM
Enfuvirtide,IC50,HIV-1 isolate NL4-3 [6],412 nM
same,IC90,HIV-1 isolate NL4-3 [6],133 nM

# Source: US20160213647A1, “COMPOSITIONS AND METHODS FOR INHIBITING VIRAL INFECTION” (priority 2015, published 2016)
